# Experimental data from patent publication US11311503B1, “Sterile aqueous choline salt compositions” (Protara Therapeutics, Inc., priority 2021, dated 2022).
# Read-outs that look alike come from different tables or passages of the source.
# Columns and labels:
# [1] = three months post production
# [2] = three months post production; remark: listed apart in the source
# [3] = Acid 1: 1 N HCl, about 72 hours
# [4] = Acid 2: 0.1 N HCl, about 72 hours
# [5] = Base 1: 1 N NaOH, about 72 hours
# [6] = Base 2: 0.1 N NaOH, about 72 hours
# [7] = Heat (dry): 80°, about 72 hours
# [8] = Heat (wet): 80°, about 72 hours
# [9] = Oxidation: 5% H2O2, about 24 hours
# 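For % Impurities RRT 1.42/1.44 in this document: Stress-treated samples analysed together with a control by the test method, run time lengthened to catch possible late-eluting degradation peaks.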
# 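For % Total Impurities in this document: Stress-treated samples analysed together with a control by the test method, run time lengthened to catch possible late-eluting degradation peaks.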
# 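For Assay % Relative to control in this document: Stress-treated samples analysed together with a control by the test method, run time lengthened to catch possible late-eluting degradation peaks.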
# 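For Mass Balance % Relative to Control in this document: Stress-treated samples analysed together with a control by the test method, run time lengthened to catch possible late-eluting degradation peaks.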
smiles,measurement,setting,value
C[N+](C)(C)CCO.[Cl-] [Choline chloride],pH (1 in 10 solution),[1],5.9
same,Bacterial Endotoxins,[2],<0.1 EU/mg
same,% Impurities RRT 1.42/1.44,[3],0.14%
same,% Total Impurities,[3],0.14%
same,Assay % Relative to control,[3],100.4%
same,Mass Balance % Relative to Control,[3],100.5%
same,Mass Balance Assay + Impurities,[3],99.24
same,Assay % LC,"Acid 1: 1 N HCl, about 72 hours, ambient",99.1 % LC
same,Assay % Relative to control,[4],100.2%
same,Mass Balance % Relative to Control,[4],100.2%
same,Mass Balance Assay + Impurities,[4],98.9
same,Assay % LC,"Acid 2: 0.1 N HCl, about 72 hours, ambient",98.9 % LC
same,% Impurities RRT 1.42/1.44,[5],0.14%
same,% Total Impurities,[5],0.14%
same,Assay % Relative to control,[5],100.6%
same,Mass Balance % Relative to Control,[5],100.7%
same,Mass Balance Assay + Impurities,[5],99.44
same,Assay % LC,"Base 1: 1 N NaOH, about 72 hours, ambient",99.3 % LC
same,Assay % Relative to control,[6],102.1%
same,Mass Balance % Relative to Control,[6],102.1%
same,Mass Balance Assay + Impurities,[6],100.8
same,Assay % LC,"Base 2: 0.1 N NaOH, about 72 hours, ambient",100.8 % LC
same,Assay % LC,Control: No treatment,98.7 % LC
same,Mass Balance Assay + Impurities,Control: No treatment,98.7
same,Assay % LC,Heat (dry): 80° for about 72 hours,99.2 % LC
same,Assay % Relative to control,[7],100.5%
same,Mass Balance % Relative to Control,[7],100.5%
same,Mass Balance Assay + Impurities,[7],99.2
same,Assay % Relative to control,[8],100.7%
same,Mass Balance % Relative to Control,[8],100.7%
same,Mass Balance Assay + Impurities,[8],99.4
same,Assay % LC,"Heat (wet): in the presence of water, 80° for about 72 hours",99.4 % LC
same,Assay % LC,"Light (dry): about 7.2 kilolux Visible and 1 W/m^2 UV, about 120 hours",99.7 % LC
same,Assay % Relative to control,Light (dry): about 120 hours,101.0%
same,Mass Balance % Relative to Control,Light (dry): about 120 hours,101.0%
same,Mass Balance Assay + Impurities,Light (dry): about 120 hours,99.7
same,Assay % Relative to control,Light (wet): about 120 hours,100.2%
same,Mass Balance % Relative to Control,Light (wet): about 120 hours,100.2%
same,Mass Balance Assay + Impurities,Light (wet): about 120 hours,98.9
same,Assay % LC,"Light (wet): in the presence of water, about 7.2 kilolux Visible and 1 W/m^2 UV, about 120 hours",98.9 % LC
same,% Total Impurities,[9],0.55%
same,Assay % Relative to control,[9],100.7%
same,Mass Balance % Relative to Control,[9],101.3%
same,Mass Balance Assay + Impurities,[9],99.95
same,Assay % LC,"Oxidation: 5% H2O2, about 24 hours, ambient",99.4 % LC
same,stability / degradation at all stressed conditions,"acid, base, oxidation, light, heat, maximum stress conditions",no significant degradation
